# Reference: patent US7462733B2, “Preparation and use of α-keto phosphonates” (University of Southern California, priority 2001, dated 2008)
# Experiment: pH dependence of ketone-hydrate equilibrium (31P NMR, absorbance 420 nm)
# Type: physicochemical
# From the text: The ketone 13a and hydrate forms 13b are simultaneously detectable by ^31P, and also via the visible absorbance (420 nm) of the ketone chromophore (yellow). At low pH, the hydrate form 13b predominates, the phosphorus NMR peak shifting from −2 to 15 ppm. The reaction is reversible, the ketone reforming as the pH is increased. The pH at which 50% of the ketone is transferred to its hydrate form (‘pK’) is 2.2 (rt, 10^−7M in D2O). This unequivocally coincides with the protonation of the phosphonate function. Upon addition of MgCl2, the apparent ‘pK’ of the equilibrium shifts by nearly 2 pH units towards left to reach 4.2 (FIG. 4).
# We, report here synthesis and characterization of the first example of a new class of nucleotide analog, in which the α,β-phosphoric anhydride oxygen of the 5′-diphosphate moiety is replaced by a reactive carbonyl group: the carbonylbisphosphonate analog of 3′-azido-3′desoxythymidine 5′-diphosphate, 13. The structures of 13 and its diazomethylenebisphosphonate precursor 12 were confirmed by ^1H, ^13C and ^31P NMR, and high-resolution mass spectrometry. The ketone and hydrate forms of 13 are simultaneously detectable by ^31P, and also via the visible absorbance (420 nm) of the ketone chromophore. At low pH, the hydrate form predominates, the phosphorus NMR peak shifting from −2 to 15 ppm. The reaction is reversible, the ketone reforming as the pH is increased. Addition of Mg^2+ shifts the ‘pK’ of the equilibrium by nearly 2 pH units. (See FIG. 4).
structure (smiles),measurement,setting,value
"Cc1cn([C@H]2C[C@H](N=[N+]=[N-])[C@@H](COP(=O)(O)C(=O)P(=O)(O)O)O2)c(=O)[nH]c1=O [Compound 13a, 3′-Azido-3′-Deoxythymidine 5′-Carbonylbisphosphonate]",shift of the 'pK' of the equilibrium on addition of Mg2+,addition of MgCl2 / Mg^2+,~2 pH units
same,pH at which 50% of the ketone is transferred to its hydrate form ('pK'),"rt, 10^−7M in D2O, no Mg",2.2
same,apparent 'pK' of the ketone-hydrate equilibrium,upon addition of MgCl2,4.2
